According to the supplement of paper PMC10307832:

Experiments:
Experiment in all cases: relative viability (nuclei count vs DMSO), 5 days (fraction); higher = more cells survive
AZ3146 + Alpelisib = compound: CN1CCC(CC1)OC2=CC(=C(C=C2)NC3=NC=C4C(=N3)N(C(=O)N4C)C5CCCC5)OC [AZ3146] + Cc1nc(NC(=O)N2CCC[C@H]2C(N)=O)sc1-c1ccnc(C(C)(C)C(F)(F)F)c1 [Alpelisib] (partner 2 µM)
Method in brief: (§1)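 Medians of duplicate plates are given as relative viability. That measure is the nuclei count in treated wells divided by the count in vehicle wells. Counts were taken on 4× images of lung cancer cell lines in 1536-well plates, 5 days after pin-tool dosing the day after seeding with one drug alone or a fixed anchor-drug dose plus five library-drug doses (not always all listed) in √10 steps.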

GSK-J4 + Pictilisib = compound: CCOC(=O)CCNc1cc(N2CCc3ccccc3CC2)nc(-c2ccccn2)n1 [GSK-J4] + CS(=O)(=O)N1CCN(Cc2cc3nc(-c4cccc5[nH]ncc45)nc(N4CCOCC4)c3s2)CC1 [Pictilisib] (partner 1 µM)
Method in brief: as §1

AZ3146 + Lapatinib = compound: CN1CCC(CC1)OC2=CC(=C(C=C2)NC3=NC=C4C(=N3)N(C(=O)N4C)C5CCCC5)OC [AZ3146] + CS(=O)(=O)CCNCc1ccc(-c2ccc3ncnc(Nc4ccc(OCc5cccc(F)c5)c(Cl)c4)c3c2)o1 [Lapatinib] (partner 2 µM)
Method in brief: as §1

GSK-J4 + Lapatinib = compound: CCOC(=O)CCNc1cc(N2CCc3ccccc3CC2)nc(-c2ccccn2)n1 [GSK-J4] + CS(=O)(=O)CCNCc1ccc(-c2ccc3ncnc(Nc4ccc(OCc5cccc(F)c5)c(Cl)c4)c3c2)o1 [Lapatinib] (partner 2 µM)
Method in brief: as §1

| Cell Line | relative viability (AZ3146 + Alpelisib; first compound 0.08 µM) | relative viability (AZ3146 + Alpelisib; first compound 0.253 µM) | relative viability (AZ3146 + Alpelisib; first compound 0.8 µM) | relative viability (AZ3146 + Alpelisib; first compound 2.53 µM) | relative viability (AZ3146 + Alpelisib; first compound 8 µM) | relative viability (GSK-J4 + Pictilisib; first compound 0.5 µM) | relative viability (GSK-J4 + Pictilisib; first compound 1.581 µM) | relative viability (GSK-J4 + Pictilisib; first compound 15.81 µM) | relative viability (GSK-J4 + Pictilisib; first compound 50 µM) | relative viability (AZ3146 + Lapatinib; first compound 0.08 µM) | relative viability (AZ3146 + Lapatinib; first compound 0.253 µM) | relative viability (AZ3146 + Lapatinib; first compound 0.8 µM) | relative viability (AZ3146 + Lapatinib; first compound 2.53 µM) | relative viability (AZ3146 + Lapatinib; first compound 8 µM) | relative viability (GSK-J4 + Lapatinib; first compound 0.5 µM) | relative viability (GSK-J4 + Lapatinib; first compound 1.581 µM) | relative viability (GSK-J4 + Lapatinib; first compound 15.81 µM) | relative viability (GSK-J4 + Lapatinib; first compound 50 µM) | relative viability (GSK-J4 + Pictilisib; first compound 5 µM) | relative viability (GSK-J4 + Lapatinib; first compound 5 µM) |
| --- | --- | --- | --- | --- | --- | --- | --- | --- | --- | --- | --- | --- | --- | --- | --- | --- | --- | --- | --- | --- |
| NCI-H838 | 0.95 | 1.06 | 0.883 | 0.985 | 0.858 | 0.624 | 0.407 | 0.467 | 0.433 | 1.07 | 0.939 | 0.935 | 0.858 | 0.32 | 1.25 | 0.748 | 0.938 | 0.858 |  |  |
| NCI-H1793 | 0.578 | 0.743 | 0.758 | 0.779 | 0.624 | 0.249 | 0.171 | 0.364 | 0.337 | 0.649 | 0.853 | 0.492 | 0.805 | 0.497 | 0.71 | 0.557 | 0.404 | 0.234 | 0.54 | 0.621 |
| NCI-H1792 | 0.577 | 0.75 | 0.762 | 0.667 | 0.718 | 0.306 | 0.25 | 0.244 | 0.263 | 0.854 | 1.09 | 0.868 | 0.936 | 0.954 | 0.932 | 0.705 | 0.782 | 0.692 | 0.254 | 0.835 |
| NCI-H1355 | 0.836 | 0.849 | 0.897 | 0.723 | 0.809 | 0.521 | 0.302 | 0.418 | 0.478 | 0.854 | 0.951 | 0.986 | 1.03 | 0.953 | 0.946 | 0.875 | 0.916 | 0.919 | 0.397 | 0.944 |
| HARA | 0.629 | 0.785 | 0.883 | 0.909 | 0.725 | 0.375 | 0.443 | 0.524 | 0.156 | 0.652 | 0.851 | 0.662 | 0.822 | 0.693 | 0.729 | 0.706 | 0.699 | 0.554 |  |  |
| 201T | 0.943 | 0.918 | 0.954 | 0.993 | 1 | 0.653 | 0.791 | 0.687 | 0.598 | 1.03 | 1.06 | 1 | 1.06 | 1.06 | 0.988 | 1.08 | 1.04 | 0.992 | 0.726 | 0.983 |
| NCI-H23 | 0.591 | 0.668 | 0.676 | 0.744 | 0.738 | 0.535 |  | 0.49 | 0.319 | 1.11 | 1.22 | 1.14 | 1.31 | 0.915 | 0.994 |  | 0.778 | 0.674 | 0.545 | 0.772 |
| LC-2-ad | 0.793 | 0.797 | 0.866 | 0.956 | 0.792 | 0.548 | 0.458 | 0.547 | 0.322 | 0.828 | 1.04 | 0.907 | 0.914 | 0.631 | 1.04 | 0.743 | 0.904 | 0.664 | 0.622 | 0.809 |
| COR-L 105 | 1.01 | 1.15 | 0.86 | 1.1 | 0.665 | 0.519 | 0.414 | 0.402 | 0.36 | 0.357 | 0.36 | 0.317 | 0.341 | 0.254 | 0.398 | 0.317 | 0.319 | 0.35 | 0.375 | 0.35 |
| NCI-H647 | 1.05 | 1.21 | 1.27 | 1.28 | 0.534 | 0.576 | 0.479 | 0.426 | 0.353 | 1.05 | 1.12 | 1.12 | 1.25 | 0.792 | 1.01 | 0.954 | 0.977 | 0.815 | 0.272 | 0.94 |
| NCI-H1915 | 0.978 | 1 | 1 | 1.06 | 1.04 | 0.905 | 0.774 | 0.962 | 1.03 | 1.05 | 0.864 | 1.04 | 0.933 | 1.02 | 0.963 | 0.802 | 0.941 | 0.961 | 0.901 | 0.83 |
| NCI-H2087 | 1.03 | 1.04 | 1.19 | 1.11 | 0.953 | 0.816 | 0.341 | 0.999 | 0.424 | 0.899 | 1.08 | 1.08 | 0.906 | 1.14 | 0.794 | 0.514 | 1.01 | 0.57 |  |  |
| NCI-H2085 | 0.993 | 0.947 | 0.94 | 0.99 | 0.808 | 0.546 | 0.463 | 0.481 | 0.415 | 0.731 | 0.752 | 0.7 | 0.823 | 0.699 | 0.696 | 0.679 | 0.615 | 0.397 | 0.677 | 0.77 |
